Source: US11169145B2, “Methods of detection and treatment for cardiovascular disease and foot wounds” (Washington University, priority 2017, dated 2021)
“Also recorded” adds a separate entry of the source.

Columns and labels:
[1] = MR-derived skeletal muscle blood flow (SMBF) in subjects with T2D with or without Cilostazol therapy; type: in vivo, human; details: subjects with T2D, 12 months of Cilostazol vs not treated, at rest and with exercise; critically ischemic limbs (ABI <0.5)
Source text: MG=Medial Gastrocnemius, SOL=Soleus, color bar unit=ml/min/100 g.

[2] = cited from earlier work
[3] = cited from earlier work; remark: listed apart in the source
[4] = cited from earlier work; remark: listed apart in the source
[5] = cited from earlier work; remark: listed apart in the source
[6] = tested on: serum circulating Fatty Acid Synthase (cFAS); test: Serum cFAS (ELISA) in subjects with T2D and PAD with or without Cilostazol therapy; type: in vivo, human; details: subjects with T2D and PAD receiving Cilostazol therapy vs subjects not receiving the medication
Protocol: FIG. 9A-FIG. 9C is a series of graphs showing serum cFAS is a biomarker for disease subjects with PAD and T2D. cFAS was evaluated using 96-well ELISA (Aviva Systems Biology) FIG. 9A. Subjects with severe PAD (n=29) had more serum cFAS than subjects with moderate PAD (n=30), and subjects with no PAD (n=22). FIG. 9B. cFAS is elevated in subjects with T2D (n=40) compared to no T2D (n=41). FIG. 9C. cFAS is also elevated in subjects with DCSI ≥5 (n=15) compared to DCSI <5 (n=14). FIG. 11A-FIG. 11B is a pie chart and box plot showing cilostazol in our subjects with T2D and PAD. FIG. 11A. In our current clinical practice, Cilostazol therapy is currently administered to only a minority of subjects, and therefore the majority of patients would likely meet study eligibility criteria. FIG. 11B. Subjects with T2D and PAD who receive Cilostazol therapy have lower cFAS (whiskers indicate max and min values) in study cohort. Over a 1 year period, we collected serum specimens from subjects with peripheral arterial disease (PAD; severe or moderate), and/or T2D. Serum cFAS content and enzymatic activity was evaluated as a potential biomarker for PAD and T2D disease severity. […] We retrospectively reviewed patient encounters at the Barnes-Jewish Hospital vascular surgery clinic over a 6-month period to determine the prevalence of Cilostazol prescriptions among subjects with T2D, PAD and/or FWs.

[7] = 3 to 6 month course of Cilostazol therapy
[8] = 8-week course, patients with T2D and PAD

O=C1CCc2cc(OCCCCc3nnnn3C3CCCCC3)ccc2N1 [Cilostazol, 6-[4-(1-cyclohexyl-1H-tetrazol-5-yl)butoxy]-3,4-dihydrocarbostyril]
skeletal muscle blood flow (SMBF), lower leg perfusion by MR [1]: improved perfusion; also recorded: Subject not treated with Cilostazol (top) demonstrated less lower leg perfusion | increase in walking distance ([2]; 3-month treatment course, patients with claudication): 35-50% | limb function (walking distance) ([2]; previous studies): improve | pro-atherogenic / serum lipid profiles [3, 7]: improve; also recorded: normalize | total cholesterol and serum LDL [3, 7]: decrease | risk of total vascular events, especially cerebrovascular events ([3]; meta-analysis of 12 RCTs, patients with T2D): significantly decrease | PUFA to SFA ratio ([3]; previous literature): alter | effect on Class III-IV heart failure ([4]; FDA black-box warning in this patient population): can exacerbate the condition | minor side effect: abdominal pain ([4]; incidence): 5% | minor side effect: arthritis ([4]; incidence): 2% | minor side effect: cough ([4]; incidence): 4% | minor side effect: diarrhea ([4]; incidence): 19% | minor side effect: dizziness ([4]; incidence): 10% | minor side effect: dyspepsia ([4]; incidence): 6% | minor side effect: flatulence ([4]; incidence): 3% | minor side effect: headaches ([4]; incidence): 34% | minor side effect: myalgia ([4]; incidence): 3% | minor side effect: nausea ([4]; incidence): 7% | minor side effect: pharyngitis ([4]; incidence): 10% | minor side effect: skin rash ([4]; incidence): 2% | minor side effect: vertigo ([4]; incidence): 2% | minor side effect: vomiting ([4]; incidence): 2% | lower extremity ischemic symptoms [5, 8]: improving | peripheral skin perfusion detected with transcutaneous oxygen pressure (TcPO2) [5, 8]: improve | onset of FWs ([5]; patients with T2D): prevent | peripheral skin perfusion ([5]; previous studies): enhance | wound healing ([5]; previous studies): promote | serum cFAS [6]: significantly lower
